Reference: patent publication US20240226226A1, “KAPPA-OPIOID RECEPTOR AGONIST IMPLANTS FOR TREATMENT OF PRURITUS” (Titan Pharmaceuticals, Inc., priority 2021, published 2024)

Assays:
[1] = Mouse plasma concentration from EVA mouse prototype implants versus subcutaneous acute injection; format: in vivo; conditions: male C57BL/6 mice, one prototype implant per mouse, compared with acute 0.3 mg/kg subcutaneous injection
Experimental: Male C57BL/6 mice were sampled for pharmacokinetic analysis following subcutaneous acute injection with Compound A in saline (0.3 mg/kg drug was administered, using an injection volume of 10 mL/kg), or following implantation with one Compound A implant in each mouse. The implants used were as described in Example 2.

[2] = Blood plasma levels from Compound A implants in rats; format: in vivo; conditions: one implant per rat, 17.5 mg Compound A
Experimental: Ten coextruded implants were prepared having a core comprising 50% of Compound A (as a salt) and 50% ethylene vinyl acetate, and a shell comprising 3% Compound A and 97% ethylene vinyl acetate. The implants measured 26 mm length×1.5 mm diameter, weighed 48 mg, and contained 17.5 mg Compound A. After extrusion, the implants were washed, dried, packaged and sterilized by E-beam irradiation at 25 KGy.
The implants were implanted into rats (one implant per rat), and blood plasma levels were measured. After an initial peak from drug on the implant surface, the rat plasma levels were sustained within a range of about 1.4 to about 4 ng/ml for about 2,000 hours (about 83 days).

[3] = system: mice challenged with 5′-guanidinonaltrindole (5′GNTI); test: Mouse itch model, 5′GNTI challenge, mouse prototype EVA implants; format: in vivo; conditions: male C57BL/6 mice, 1 prototype implant (10 mg Compound A) per mouse
Experimental: Compound A implants were formulated in ethylene-vinyl acetate (EVA) matrices for testing in male C57BL/6 mice. Because of the small size of the mouse, test implant prototypes (25 mm×1.5 mm) containing a limited quantity of the drug (10 mg) were used for this mouse model study. […] After extrusion, the implant prototypes were washed, dried, packaged and sterilized by E-beam irradiation at 25 KGy.
Following the implantation of one Compound A implant in each mouse, the treated mice with drug-containing implants (N=5) and untreated control mice with placebo implants or sham surgery (N=7) were challenged with 5′-guanidinonaltrindole (5′GNTI) at Days 1, 14 and 28 post-implantation. Scratch events were monitored.

[4] = system: mice challenged with the pruritogen 5′-GNTI; test: Scratching events in mice after 5′-GNTI challenge over an 84-day period, Compound A-containing implants; format: in vivo, mouse; conditions: male C57BL/6 mice, one implant (26×2.6 mm, 60 mg Compound A), 5′GNTI 0.1 mg/kg s.c. on Days 28, 56 and 84, initial 30 minutes of observation
Experimental: Male C57BL/6 mice (8-14 wks old, N=7-8) were each implanted with one Compound A-containing implant (26×2.6 mm, 50% loading, 60 mg Compound A/implant). Controls were untreated mice or mice implanted with placebo (EVA-only) implants (N=5-7). On Days 28, 56 and 84 post-implantation, the mice were transferred to behavioral rooms during the light cycle, at least 2 hours prior to challenge with the pruritogen 5′-GNTI to minimize stress effects on grooming and movement. 5′GNTI (0.1 mg/kg) was subcutaneously injected just caudal to the head/neck, and the mice were immediately placed in an observation chamber (25×25 cm) with plexiglas walls and light-colored melamine flooring and video recorded from above for up to 90 minutes after pruritogen challenge, and then removed and placed back into their home cages in the housing colony. The video recordings were subsequently analyzed for the quantity of scratching behavior, classified as either a forepaw scratching bout behind the ears, or hind paw scratching bout of the flank/back of the animal, over the initial 30 minutes of observation.
(D28C=control mice at day 28, D28A=mice with Compound A implants at day 28, D56C=control mice at day 56, D56A=mice with Compound A implants at day 56, D84C=control mice at day 84, D84A=mice with Compound A implants at day 84).

CCCC[C@@H](NC(=O)[C@@H](Cc1ccccc1)NC(=O)[C@H](N)Cc1ccccc1)C(=O)N[C@H](CCCCN(C)C)C(=O)NCc1ccncc1 [Compound A]
plasma concentrations of Compound A over the first 14 days post-implantation [1]: well above the levels estimated for therapeutic anti-pruritus activity
time for which plasma levels were sustained [2]: 2000 hours and about 2,000 hours
scratching behavior at day 28 post-implantation ([3]; 5′GNTI challenge): returning to control levels
sustained itch suppression post-implantation ([3]; 5′GNTI challenge at Days 1, 14 and 28): up to 14 days
scratch events versus control mice [4]: reduced scratch events
